Consider eleven molecules from PMC8587015, “AGSE: A Novel Grape Seed Extract Enriched for PP2A Activating Flavonoids That Combats Oxidative Stress and Promotes Skin Health” (Molecules, 2021).

In test [1] the test system is NHDFs-UVA-IL-6. The test can be described thus: UVA-induced IL-6 release from NHDFs (ELISA). The test is classed as cell-based, human. Here is the method: (§1) Primary normal human epidermal keratinocytes (NHEKs) and dermal fibroblasts (NHDFs) were purchased from ThermoFisher (Carlsbad, CA, USA) and cultured in EpiLife™ medium (NHEKs) supplemented with Human Keratinocyte Growth Supplement (HKGS) or DMEM (NHDFs) + 10% FBS. All cell types were seeded in plates with growth factor-supplemented medium for 24 h and later media was replaced with growth factor-depleted media for an additional 24 h before treatments and grown at normal conditions (5% CO2; 37 °C).
(§2) Cells were pre-incubated for 2–6 h with test materials (1% v/v ethanol vehicle) in fresh growth factor-depleted media in triplicates. NHEKs were induced by 5 ng/mL TPA for 24 h or irradiated with 25 mJ/cm^2 (15 s) broadband 305–12 nm UVB (Daavlin; Bryan, OH, USA) without test materials and incubated for an additional 18 h. NHDFs were irradiated with 12.5 J/cm^2 UVA (350–12 nm; 40 min) and later incubated without test materials for an additional 18 h. Media supernatants were harvested after induction and used to measure levels of Interleukin-6 (IL-6), Interleukin-8 (IL-8), collagenase (pro-MMP1) or tumor necrosis factor-α (TNF-α) by sandwich ELISA kits (BD Biosciences; San Jose, CA, USA or R&D Systems; Minneapolis, MN, USA). Cells were subjected to viability tests by MTS reduction assay (Promega; Madison, WI, USA).
(§3) Statistical significance was determined by ANOVA followed by a Dunnett multiple comparisons test using p-values less than 0.05 as a significant difference. For all biochemical measurements and cytokine levels, samples were assayed in triplicate. Cytokine dose–response curves were generated by fitting data with the Hill, three-parameter equation using the Sigma Plot software, from which the IC50 and maximum inhibition were determined.

In test [2] the test system is NHEK-UVB-IL-8. The test can be described thus: UVB-induced IL-8 release from NHEKs (ELISA). The test is classed as cell-based, human. Here is the method: as §1, §2, §3
In general terms: ELISA stands for enzyme-linked immunosorbent assay.

Test [3] concerns NHEK-UVB-TNFα. The experiment in a line: UVB-induced TNFα release from NHEKs (ELISA). The format is cell-based, human. The method, then: as §1, §2, §3
In test [4] the test system is NHEK-TPA-IL-8. The experiment in a line: TPA-induced IL-8 release from NHEKs (ELISA). The test is classed as cell-based, human. The following applies: 5 ng/mL TPA, 24 h. Here is the method:
as §1
Cells were pre-incubated for 2–6 h with test materials (1% v/v ethanol vehicle) in fresh growth factor-depleted media in triplicates. NHEKs were induced by 5 ng/mL TPA for 24 h or irradiated with 25 mJ/cm^2 (15 s) broadband 305–12 nm UVB (Daavlin; Bryan, OH, USA) without test materials and incubated for an additional 18 h. NHDFs were irradiated with 12.5 J/cm^2 UVA (350–12 nm; 40 min) and later incubated without test materials for an additional 18 h. […]
Statistical significance was determined by ANOVA followed by a Dunnett multiple comparisons test using p-values less than 0.05 as a significant difference. […] Cytokine dose–response curves were generated by fitting data with the Hill, three-parameter equation using the Sigma Plot software, from which the IC50 and maximum inhibition were determined.

Test [5] addresses T1, PME-1 (Protein phosphatase methylesterase 1) (Homo sapiens, UniProt Q9Y570).
T1 sequence (Q9Y570 1-386): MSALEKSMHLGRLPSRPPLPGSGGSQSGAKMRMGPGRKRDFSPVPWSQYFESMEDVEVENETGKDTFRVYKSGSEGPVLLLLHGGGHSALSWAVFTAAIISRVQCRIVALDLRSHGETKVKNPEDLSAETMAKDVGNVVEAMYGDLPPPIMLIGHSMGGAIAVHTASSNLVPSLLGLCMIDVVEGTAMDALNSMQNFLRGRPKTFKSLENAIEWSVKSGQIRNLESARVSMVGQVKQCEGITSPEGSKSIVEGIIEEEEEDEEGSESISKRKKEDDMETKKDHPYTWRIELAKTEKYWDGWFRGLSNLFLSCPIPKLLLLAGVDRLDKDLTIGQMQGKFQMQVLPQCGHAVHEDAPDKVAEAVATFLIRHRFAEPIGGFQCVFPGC
The test can be described thus: Demethylation of PP2A by PME-1, radioactive filter binding assay. The test is classed as biochemical. The following applies: GSE flavonoids / grape seed components; read-out: IC50, PP2A demethylation activity assay. Here is the method: [^3H]-labeled methylated PP2A AC dimer was prepared by incubating PP2A, LCMT1 and [^3H]-SAM (PerkinElmer; Waltham, MA, USA) in 50 mM MOPS-Na (pH 7.2), 5 mM MgCl2, and 1 mM DTT at room temperature for 1 h. Demethylation of PP2A by PME-1 (Protein phosphatase methylesterase 1) was measured using the radioactive filter binding assay format. 20 nM PME-1 was incubated for 15 min with extract or compound, then 20 nM of [^3H]-labeled methylated PP2A AC dimer was added. Reactions were run at room temperature for 30 min then applied to a 96-well filter plate (MilliporeSigma; Burlington, MA, USA.) containing 30% TCA where proteins were precipitated and separated from the excess of [^3H]-SAM by washing with 70% ethanol. [^3H]-incorporation was measured using TopCount NXT scintillation counter (PerkinElmer; Waltham, MA, USA). IC50 values were generated from dose–response curves using a four-parameter logistic curve fit in SigmaPlot (Systat Software, Inc., Palo Alto, CA, USA).

The nature of test [6]: Cell-free antioxidant ABTS assay by metmyoglobin. The format is biochemical. An excerpt: (§4) Radical scavenging antioxidant assay was estimated using the colorimetric antioxidant assay kit obtained from Cayman Chemical Company (Ann Arbor, MI, USA). ABTS (2, 2′-Azino-bis-[3-ehthylbenzthiazoline sulphonate]) was used as the chromogen, which changes into a colored monocation radical form (ABTS^•+) by metmyoglobin in the presence of hydrogen peroxide, and monitored by measuring absorption at 750 nm using a plate reader (Envision-PerkinElmer; Waltham, MA, USA). Antioxidant inhibition was calculated based on the discoloration of ABTS by serial concentrations of test compounds added simultaneously with myoglobin and hydrogen peroxide. NHDF cells were cultured in DMEM with 10% fetal bovine serum (FBS) and seeded into black wall 96-well plates and incubated for 24 h before treatment. Cells were pre-treated for 3 h with and without test compounds (0.01–3 µM final concentrations) and labeled with 50 µM of dichloro-dihydro-fluorescein diacetate (DCFH-DA). Total fluorescence (Excitation = 485 nm; Emission = 535 nm) was measured after cells were co-incubated for 20 min with 0.1 mM H2O2 and the test compounds. Cell protection against oxidative stress was calculated using the following formula: Cell protection (%) = [(test compound (%) − hydrogen peroxide-only (%))/([…] − untreated control (%))] × 100.

In test [7] the test system is NHDFs intracellular ROS. The experiment in a line: Intracellular antioxidant assay (DCFH-DA) in NHDFs after H2O2 induction. The test is classed as cell-based, human. The settings on record: 3 h pre-incubation.
Description: as §4

The mark [8] stands for this setting: Homo sapiens, NHEK, light or radiation study, UVB 25 mJ/cm^2.

Values after ≈ are worked out from the molar mass of the structure shown. Where only a bound is given, the exact number is not on record here.

As for `CC1=C(/C=C/C(C)=C/C=C/C(C)=C/C(=O)O)C(C)(C)CCC1` [ATRA, all-trans retinoic acid], the IC50 – broadly, the midpoint of a concentration-inhibition curve – in test [1] (Homo sapiens, NHDF, light or radiation study, UVA 12.5 J/cm^2) is over 1 µg/mL; in test [2] (setting [8]) it was over 1 µg/mL; in test [3] (setting [8]), over 1 µg/mL. Besides, the “effect on UVA-induced IL-6 release (in words)” value in test [1] (highest non-toxic dose tested) is on record as “did not have any effect”. Also, the “effect on UVB-induced IL-8 release (in words)” value in test [2] (highest non-toxic dose tested) is “did not have any effect”. The “effect on UVB-induced TNFα release (in words)” value in test [3] (highest non-toxic dose tested) is given as “did not have any effect”.

For `C[C@H]1C[C@H]2[C@@H]3CCC4=CC(=O)C=C[C@]4(C)[C@@]3(F)[C@@H](O)C[C@]2(C)[C@@]1(O)C(=O)CCl` [Clobetasol], the “IC50 NHEK-TPA-IL-8” value in test [4] came to 0.0005 ng/mL (≈ 1.22e-06 µM).

Take `COc1cc(/C=C/C(=O)O)ccc1O` [Ferulic acid]: the 50% inhibitory concentration (IC50) in test [5] was over 15 µM. The “IC50 NHDFs-UVA-IL-6” value in test [1] (UVA 12.5 J/cm^2) is 0.01 µg/mL (≈ 0.0515 µM). The “IC50 NHEK-UVB-IL-8” value in test [2] (UVB 25 mJ/cm^2) was under 0.01 µg/mL. Moreover, the “IC50 NHEK-UVB-TNFα” value in test [3] (UVB 25 mJ/cm^2) is listed as under 0.01 µg/mL.

On to `C[C@@H]1O[C@@H](OC[C@H]2O[C@@H](Oc3c(-c4ccc(O)c(O)c4)oc4cc(O)cc(O)c4c3=O)[C@H](O)[C@@H](O)[C@@H]2O)[C@H](O)[C@H](O)[C@H]1O` [Rutin], for which the concentration for half-maximal inhibition (IC50) in test [5] was over 15 µM.

As to `COc1ccc(-c2cc(=O)c3c(O)cc(O)c(-c4cc(-c5cc(=O)c6c(O)cc(OC)cc6o5)ccc4OC)c3o2)cc1` [Sciadopitysin], the IC50 in test [5] was found to be 1.1 µM.

For the molecule `O=C(O)[C@H]1O[C@@H](Oc2cc3oc(-c4ccc(O)cc4)cc(=O)c3c(O)c2O)[C@H](O)[C@@H](O)[C@@H]1O` [Scutellarin], the IC50 in test [5] amounted to 4.9 µM.

For the molecule `COc1cc(C(=O)O)cc(OC)c1O` [Syringic acid], the concentration for half-maximal inhibition (IC50) in test [5] was over 15 µM.

`CC(C)(C)C(O)(CCc1ccc(Cl)cc1)Cn1cncn1` (stereo not drawn) [Tebuconazole]: the half-maximal inhibitory concentration (IC50) in test [5] was over 15 µM.

For `COc1cc(C(=O)O)ccc1O` [Vanillic acid], the IC50 in test [5] was over 15 µM.

Regarding `O=C1O[C@H]([C@@H](O)CO)C(O)=C1O` [Vitamin C], the “IC50, H2O2-induced free radical ROS production” value in test [6] is given as 10.1 µg/mL (≈ 57.3 µM). Also, the “IC50, intracellular oxidative stress” value in test [7] amounted to 0.6 µg/mL (≈ 3.41 µM). Besides, the “IC50 NHDFs-UVA-IL-6” value in test [1] (UVA 12.5 J/cm^2) is reported as over 10 µg/mL. The “IC50 NHEK-UVB-IL-8” value in test [2] (UVB 25 mJ/cm^2) is listed as over 10 µg/mL. For the same molecule, the “IC50 NHEK-UVB-TNFα” value in test [3] (UVB 25 mJ/cm^2) was over 10 µg/mL.

For `Cc1c(C)c2c(c(C)c1O)CC[C@@](C)(CCC[C@H](C)CCC[C@H](C)CCCC(C)C)O2` [Vitamin E, α-tocopherol], in test [6], the “IC50, H2O2-induced free radical ROS production” value was 18.6 µg/mL (≈ 43.2 µM). For the same molecule, in test [7] (Homo sapiens, NHDF, read-out: IC50, intracellular oxidative stress), the IC50 was over 100 µg/mL.
